Experimental findings from patent publication US7030143B2, “Heterocyclic compounds” (Nippon Shinyaku Co., Ltd., priority 2000, dated 2006) are described below.

In one data set the test system is KK-A^y mice. Nature of the data set: Effects on carbohydrate and lipid metabolism in KK-A^y mouse. To be noted: oral, 4 days; for Percent change of each parameter compared to control group (%): AI: Atherogenic Index = (TC − HDL-C)/HDL-C; for Percent change of each parameter compared to control group (%): BG: plasma glucose level; for Percent change of each parameter compared to control group (%): Ins: plasma insulin level; for Percent change of each parameter compared to control group (%): TG: plasma triglyceride level; for Percent change of each parameter compared to control group (%): HDL-C: serum HDL-C level; for Percent change of each parameter compared to control group (%): (V)LDL-C: sum of VLDL-C and LDL-C level in serum. The data set is classed as in vivo. The method, then:
The experiment was conducted using the compounds described in the Examples as test compounds and Troglitazone (5-[4-(6-hydroxy-2,5,7,8-tetramethylchroman-2-ylmethoxy)benzyl]-2,4-thiazolidinedione) as a control compound.
Each test compound was orally administered to KK-A^y mice (10 week old, male), NIDDM model animal, for 4 days at a given dosage. On the next day of the last administration, blood was collected from tail end blood vessels under non-fasting conditions to prepare heparinized plasma. Thereafter, blood was collected from an abdominal large vein under pentobarbital anesthesia to prepare serum. The glucose level (BG), triglyceride level (TG) and insulin level (Ins) in plasma were measured using a glucose CII-test Wako (Wako Pure Chemical Industries, Ltd), CLINTECH TG-S (IATORON LABORATORIES, INC.) or triglyceride E-test WAKO (Wako Pure Chemical Industries, Ltd), and a rat insulin measurement kit (Morinaga Biochemistry Research Institute) or REBIS-insulin-mouse-T (Mouse Insulin ELISA (TMB) KIT, Shibayagi Co., Ltd), respectively. Also, the sum of VLDL-C level and LDL-C level in serum (hereinafter, referred to as “(V)LDL-C”), total cholesterol level (TC) and HDL-C level were measured using a high performance liquid chromatography system for the measurement of lipoprotein cholesterol (TOSOH CORPORATION). (V)LDL-C level was measured because VLDL-C and LDL-C cannot be measured separately. Atherogenic Index (AI) was calculated according to the following formula: AI=[(TC level)−(HDL-C level)]/(HDL-C level).

For `Cc1oc(-c2ccccc2)nc1CCCCCOC(C)(C)C(=O)O` (hydrate or solvate) [Example 34, 2-Methyl-2-[5-(5-methyl-2-phenyloxazol-4-yl)pentyloxy]propionic acid], the melting point (usually the temperature of the solid-liquid transition) lay within 66 to 68 °C.
Regarding `Cc1oc(-c2ccccc2)nc1CCCCCCCOC(C)(C)C(=O)O` [Example 36, 2-Methyl-2-[7-(5-methyl-2-phenyloxazol-4-yl)heptyloxy]propionic acid], the melting point lay in the range of 70 to 71 °C.
On the same count and under the same terms, for `Cc1oc(-c2ccc(F)cc2)nc1CCCCCCOC(C)(C)C(=O)O` [Example 40, 2-{6-[2-(4-Fluorophenyl)-5-methyloxazol-4-yl]hexyloxy}-2-methylpropionic acid] the value was 64 to 67 °C.
In turn, `Cc1oc(-c2ccc(C(C)(C)C)cc2)nc1CCCCCCOC(C)(C)C(=O)O` [Example 41, 2-{6-[2-(4-tert-Butylphenyl)-5-methyloxazol-4-yl]hexyloxy}-2-methylpropionic acid] showed a melting point of 89 to 91 °C.
Take `CCc1oc(-c2ccccc2)nc1CCCCCCOC(C)(C)C(=O)O` [Example 42, 2-[6-(5-Ethyl-2-phenyloxazol-4-yl)hexyloxy]-2-methylpropionic acid]: the melting point is 88.5 to 89 °C.
On to `CC(C)(OCCCCCCc1coc(-c2ccccc2)n1)C(=O)O` [Example 43, 2-Methyl-2-[6-(2-phenyloxazol-4-yl)hexyloxy]propionic acid], for which the melting point was 75 to 77 °C.
Consider `CC(C)(OCCCCCCCc1coc(-c2ccccc2)n1)C(=O)O` [Example 44, 2-Methyl-2-[7-(2-phenyloxazol-4-yl)heptyloxy]propionic acid], for which the melting point fell in the range of 72 to 75 °C.
With `Cc1oc(-c2ccccc2)nc1CCCCCCOC(C)(C)CO` [Example 55, 2-Methyl-2-[6-(5-methyl-2-phenyloxazol-4-yl)hexyloxy]-propanol], in the data set with KK-A^y mice (dose 10 mg/kg), the “Percent change of each parameter compared to control group (%): AI” value (“Percent change of each parameter … (%): AI” for short) is −72%, the “Percent change of each parameter compared to control group (%): BG” value (“Percent change of each parameter … (%): BG” for short) was −22%, the “Percent change of each parameter compared to control group (%): Ins” value (“Percent change of each parameter … (%): Ins” for short) is 2% and the “Percent change of each parameter compared to control group (%): TG” value (from here on “Percent change of each parameter … (%): TG”) is −45%. In the data set on KK-A^y mice (dose 10 mg/kg), the “Percent change of each parameter compared to control group (%): HDL-C” value (“Percent change of each parameter … (%): HDL-C” for short) is recorded as 62% and the “Percent change of each parameter compared to control group (%): (V)LDL-C” value (“Percent change of each parameter … (%): (V)LDL-C” below) is −44%.
As for `Cc1ccc(-c2nc(CCCCC3COC(C)(C(=O)O)OC3)c(C)o2)cc1F` (stereo not shown) [Example 64, 2-Methyl-c-5-{4-[5-methyl-2-(3-fluoro-4-methylphenyl)-oxazol-4-yl]butyl}-1,3-dioxane-r-2-carboxylic acid], in the data set on KK-A^y mice (dose 1 mg/kg), the “Percent change of each parameter … (%): AI” value is on record as −72%, the “Percent change of each parameter … (%): BG” value was −12%, the “Percent change of each parameter … (%): Ins” value is −20% and the “Percent change of each parameter … (%): TG” value is reported as −53%. In the data set on KK-A^y mice (dose 1 mg/kg), the “Percent change of each parameter … (%): HDL-C” value stood at 21% and the “Percent change of each parameter … (%): (V)LDL-C” value is given as −63%.
With `Cc1ccc(-c2nc(CCCCC3COC(C)(C(=O)O)OC3)c(C)s2)cc1` (stereo not shown) [Example 70, 2-Methyl-c-5-{4-[5-methyl-2-(p-tolyl)thiazol-4-yl]-butyl}-1,3-dioxane-r-2-carboxylic acid], in the data set with KK-A^y mice (dose 3 mg/kg), the “Percent change of each parameter … (%): AI” value is reported as −53%, the “Percent change of each parameter … (%): BG” value is −15%, the “Percent change of each parameter … (%): Ins” value was determined as 5% and the “Percent change of each parameter … (%): TG” value is −37%. Besides, in the data set on KK-A^y mice (dose 3 mg/kg), the “Percent change of each parameter … (%): HDL-C” value is 41% and the “Percent change of each parameter … (%): (V)LDL-C” value is given as −33%.
For `Cc1cccc(-c2nc(CCCCC3COC(C)(C(=O)O)OC3)c(C)o2)c1` (stereo not shown) [Example 71, 2-Methyl-c-5-{4-[5-methyl-2-(m-tolyl)oxazol-4-yl]butyl}-1,3-dioxane-r-2-carboxylic acid], in the data set on KK-A^y mice (dose 3 mg/kg), the “Percent change of each parameter … (%): AI” value was −90%, the “Percent change of each parameter … (%): BG” value is −51%, the “Percent change of each parameter … (%): Ins” value is listed as −61% and the “Percent change of each parameter … (%): TG” value is −89%. In addition, in the data set with KK-A^y mice (dose 3 mg/kg), the “Percent change of each parameter … (%): HDL-C” value was 1% and the “Percent change of each parameter … (%): (V)LDL-C” value was −90%.
In the case of `Cc1ccc(-c2nc(CCCCC3COC(C)(C(=O)O)OC3)c(C)o2)cc1C` (stereo not shown) [Example 73, 2-Methyl-c-5-{4-[5-methyl-2-(3,4-dimethylphenyl)-oxazol-4-yl]butyl}-1,3-dioxane-r-2-carboxylic acid], in the data set on KK-A^y mice (dose 3 mg/kg), the “Percent change of each parameter … (%): AI” value was −85%, the “Percent change of each parameter … (%): BG” value is on record as −53%, the “Percent change of each parameter … (%): Ins” value is reported as −68% and the “Percent change of each parameter … (%): TG” value is listed as −92%. In the data set on KK-A^y mice (dose 3 mg/kg), the “Percent change of each parameter … (%): HDL-C” value is on record as −8% and the “Percent change of each parameter … (%): (V)LDL-C” value is listed as −90%.
For `COc1ccc(-c2nc(CCCCC3COC(C)(C(=O)O)OC3)c(C)o2)cc1` (stereo not shown) [Example 74, 2-Methyl-c-5-{4-[5-methyl-2-(4-methoxyphenyl)oxazol-4-yl]butyl}-1,3-dioxane-r-2-carboxylic acid], in the data set with KK-A^y mice (dose 3 mg/kg), the “Percent change of each parameter … (%): AI” value is on record as −72%, the “Percent change of each parameter … (%): BG” value is −18%, the “Percent change of each parameter … (%): Ins” value is reported as −33% and the “Percent change of each parameter … (%): TG” value is recorded as −46%. Further, in the data set with KK-A^y mice (dose 3 mg/kg), the “Percent change of each parameter … (%): HDL-C” value was determined as 55% and the “Percent change of each parameter … (%): (V)LDL-C” value is −58%.
Turning to `Cc1oc(-c2cccs2)nc1CCCCC1COC(C)(C(=O)O)OC1` (stereo not shown) [Example 75, 2-Methyl-c-5-{4-[5-methyl-2-(2-thienyl)oxazol-4-yl]butyl}-1,3-dioxane-r-2-carboxylic acid], in the data set on KK-A^y mice (dose 3 mg/kg), the “Percent change of each parameter … (%): AI” value is listed as −61%, the “Percent change of each parameter … (%): BG” value is reported as −23%, the “Percent change of each parameter … (%): Ins” value was −29% and the “Percent change of each parameter … (%): TG” value is −47%. In addition, in the data set on KK-A^y mice (dose 3 mg/kg), the “Percent change of each parameter … (%): HDL-C” value is on record as 37% and the “Percent change of each parameter … (%): (V)LDL-C” value was −50%.
For the molecule `Cc1ccc(-c2nc(Cc3cccc(CC4COC(C)(C(=O)O)OC4)c3)c(C)o2)cc1` (stereo not shown) [Example 81, 2-Methyl-t-5-[3-{[5-methyl-2-(p-tolyl)oxazol-4-yl]methyl}benzyl]-1,3-dioxane-r-2-carboxylic acid], in the data set on KK-A^y mice (dose 1 mg/kg), the “Percent change of each parameter … (%): AI” value was −83%, the “Percent change of each parameter … (%): BG” value is −8%, the “Percent change of each parameter … (%): Ins” value was −21% and the “Percent change of each parameter … (%): TG” value was −62%. In the data set on KK-A^y mice (dose 1 mg/kg), the “Percent change of each parameter … (%): HDL-C” value is listed as 32% and the “Percent change of each parameter … (%): (V)LDL-C” value was −76%.
For the molecule `Cc1c(C)c2c(c(C)c1O)CCC(C)(COc1ccc(CC3SC(=O)NC3=O)cc1)O2` (stereo not shown) [Troglitazone, 5-[4-(6-hydroxy-2,5,7,8-tetramethylchroman-2-ylmethoxy)benzyl]-2,4-thiazolidinedione, reference compound], in the data set on KK-A^y mice (dose 300 mg/kg), the “Percent change of each parameter … (%): AI” value is −7%, the “Percent change of each parameter … (%): BG” value is −9%, the “Percent change of each parameter … (%): Ins” value is reported as −22% and the “Percent change of each parameter … (%): TG” value is given as −11%. In the data set on KK-A^y mice (dose 300 mg/kg), the “Percent change of each parameter … (%): HDL-C” value is recorded as −8% and the “Percent change of each parameter … (%): (V)LDL-C” value was −26%.
